Assay results: paper PMC6287599, “2,6-Bis(2-Benzimidazolyl)Pyridine (BBP) Is a Potent and Selective Inhibitor of Small Conductance Calcium-Activated Potassium (SK) Channels” (Frontiers in Pharmacology, 2018)
pIC50: −log10 of the molar value. Where “and” joins values, the source holds several entries; their conditions need not be identical. Equal values may be shown once. Entries after “also recorded” stand apart in the source; their conditions may differ.

Columns and labels:
Kir2.1 = molecular target: T1, Kir2.1 (Homo sapiens, UniProt P63252); test: Two-electrode voltage clamp in Xenopus laevis oocytes, Kir2.1; assay type: cell-based; conditions: BBP 10 μM, TEVC, n = 5
T1 sequence (P63252 1-427): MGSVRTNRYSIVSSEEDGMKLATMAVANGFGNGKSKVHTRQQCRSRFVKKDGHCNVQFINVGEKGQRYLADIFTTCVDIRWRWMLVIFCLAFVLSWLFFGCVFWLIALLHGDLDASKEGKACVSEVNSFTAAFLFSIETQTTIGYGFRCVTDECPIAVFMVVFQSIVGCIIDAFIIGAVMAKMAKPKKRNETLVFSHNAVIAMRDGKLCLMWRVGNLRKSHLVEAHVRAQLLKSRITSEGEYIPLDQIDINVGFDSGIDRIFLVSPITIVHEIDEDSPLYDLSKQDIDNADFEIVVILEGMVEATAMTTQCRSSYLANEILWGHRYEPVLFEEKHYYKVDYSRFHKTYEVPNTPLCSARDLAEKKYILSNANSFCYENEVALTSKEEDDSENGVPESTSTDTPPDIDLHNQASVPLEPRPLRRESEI
Method: cRNA was prepared from linearized plasmids using the mMESSAGE mMACHINE T7 kit (Ambion, USA) and quantified by UV spectroscopy (NanoDrop, Thermo Scientific, Wilmington, USA). Xenopus laevis oocytes were acquired from EcoCyte Bioscience (Castrop-Rauxel, Germany). Oocytes were injected with 50 nL cRNA and currents were recorded after 2 days of incubation at 19°C. Currents were recorded at a sampling rate of 10 kHz using a TEVC amplifier (Dagan CA-1B; IL, USA), and borosilicate glass recording electrodes (Module Ohm, Herlev, Denmark), made with a DMZ Universal Puller (Zeitz Instruments, Martinsried, Germany) with a resistance of 0.5–1 MΩ when filled with 2 M KCl. Oocytes were superfused with Kulori (pH 7.4) solution containing NaCl 90 mM, KCl 4 mM, MgCl2 1 mM, CaCl2 1 mM, 4-(2-hydroxyethyl)-1-piperazineethanesulfonic acid 5 mM, and currents were elicited with the voltage protocols previously indicated (Skarsfeldt et al., [2016]), from a holding potential of −80 mV. […]
To assess the effect of BBP on other calcium-activated potassium channels (hBK, hSK3 WT, rSK3 H491N, and hIK), each individual current was first normalized to its cell size using membrane's capacitance (pA/pF) before statistical analysis. […] Statistical significance between saline and the effect of both BBP and the corresponding reference compound was determined for each channel using one-way ANOVA analysis. […]

[1] = system: all three SK channel subtypes; test: Automated patch clamp, summary over all three SK channel subtypes; assay type: cell-based, human; conditions: summary value, read-out: IC50 on all three SK channel subtypes (similar potency)
Method: Three different stable HEK293 cell lines expressing hSK1, hSK2 or hSK3 (NeuroSearch A/S, Ballerup, Denmark) and a CHO stable cell line expressing hERG (University of Copenhagen, Copenhagen, Denmark) were used for automated patch clamp. These cells were cultivated and prepared as previously described (Skarsfeldt et al., [2016]).
Automated patch clamp (QPatch 16, Sophion, Denmark) on SK-expressing HEK293 cell lines was conducted as previously described (Simó-Vicens et al., [2017b]). Briefly, SK currents were elicited by voltage-ramps starting at −80 mV and finishing at +80 mV from a holding potential of 0 mV. Extracellular solution contained 0.1 mM CaCl2, 3 mM MgCl2, 154 mM KCl, 10 mM HEPES and 10 mM glucose with pH 7.4. Intracellular solution for SK experiments contained 8.106 mM CaCl2 (final free calcium concentration of 400 nM), 1.167 mM MgCl2, 10 mM EGTA, 154 mM KCl, 10 mM HEPES, 31.25/ 10 mM KOH/EGTA and 15 mM KOH with pH 7.2. Automated patch clamp on hERG-expressing CHO cell line was performed also as previously described (Skarsfeldt et al., [2016]).
Where Y is the normalized response, from 100, corresponding to current recorded during saline perfusion, down to 0, corresponding to currents recorded in the presence of bicuculline methiodide 100 μM. X is the log of the BBP concentration. A standard Hill Slope of −1 was considered for this purpose. […]

- pIC50 [1]: 6.40 and ~6.40
SMILES: c1cc(-c2nc3ccccc3[nH]2)nc(-c2nc3ccccc3[nH]2)c1 [BBP, 2,6-Bis(2-benzimidazolyl)pyridine]
- Effect on Kir2.1 current (Kir2.1): did not have any effect; also recorded: did not significantly affect
